{
  "source": "PubChem BioAssay AID256",
  "about": "(DTP/NCI, 2004)",
  "tested_on": "CD2F1 mice, L1210 leukemia ip, survival T/C",
  "assay": "NCI In Vivo Anticancer Drug Screen. Data for tumor model L1210 Leukemia (intraperitoneal) in CD2F1 (CDF1) mice",
  "details": "endpoint: mean survival time, higher = longer survival",
  "outline": "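Vehicle-treated tumor-bearing mice served as controls (C) for compound-treated mice (T). Reported figure is T divided by C.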",
  "key": {"[1]": {"details": "dose: 25.0 mg/kg/injection, schedule: Q04DX003 (ip), vehicle: saline with Tween-80"}, "[2]": {"details": "dose: 50.0 mg/kg/injection, schedule: Q04DX003 (ip), vehicle: saline with Tween-80"}, "[3]": {"details": "dose: 100.0 mg/kg/injection, schedule: Q04DX003 (ip), vehicle: saline with Tween-80"}, "[4]": {"details": "dose: 50.0 mg/kg/injection, schedule: Q01DX009 (ip), vehicle: Klucel (hydroxypropylcellulose) (HPC)"}, "[5]": {"details": "dose: 100.0 mg/kg/injection, schedule: Q01DX009 (ip), vehicle: Klucel (hydroxypropylcellulose) (HPC)"}, "[6]": {"details": "dose: 200.0 mg/kg/injection, schedule: Q01DX009 (ip), vehicle: Klucel (hydroxypropylcellulose) (HPC)"}, "[7]": {"details": "dose: 100.0 mg/kg/injection, schedule: Q04DX002 (ip), vehicle: saline with Tween-80"}, "[8]": {"details": "dose: 200.0 mg/kg/injection, schedule: Q04DX002 (ip), vehicle: saline with Tween-80"}, "[9]": {"details": "dose: 400.0 mg/kg/injection, schedule: Q04DX002 (ip), vehicle: saline with Tween-80"}},
  "note": "Several values for one entry are separate records, joined by “and”; a condition that tells them apart may be missing. Equal entries are not always repeated. Inconclusive results and toxic doses are left out.",
  "data": [
    {"smiles": "CC(C)CC(CC(C)C)=NNc1ccc([N+](=O)[O-])cc1[N+](=O)[O-]", "values": [
      {"measurement": "T/C", "setting": "dose: 100.0 mg/kg/injection, schedule: Q01DX001 (ip), vehicle: saline", "value": "100 % of control"},
      {"measurement": "T/C", "setting": "dose: 200.0 mg/kg/injection, schedule: Q01DX001 (ip), vehicle: saline", "value": "103 % of control"},
      {"measurement": "T/C", "setting": "dose: 400.0 mg/kg/injection, schedule: Q01DX001 (ip), vehicle: saline", "value": "100 % of control"}
    ]},
    {"smiles": "CCN1CC2c3cc(OC)c(OC)cc3CC(c3ccccc3)C2C1", "note": "(stereo unspecified)", "values": [
      {"measurement": "T/C", "setting": "dose: 12.5 mg/kg/injection, schedule: Q04DX003 (ip), vehicle: saline with Tween-80", "value": "108 % of control"},
      {"measurement": "T/C", "setting": "[1]", "value": "104 % of control"},
      {"measurement": "T/C", "setting": "[2]", "value": "92 % of control"}
    ]},
    {"smiles": "CCN(CCO)c1ccc(N)cc1C", "values": [
      {"measurement": "T/C", "setting": "dose: 1.56 mg/kg/injection, schedule: Q01DX009 (ip), vehicle: saline", "value": "100 % of control"},
      {"measurement": "T/C", "setting": "dose: 1.56 mg/kg/injection, schedule: Q04DX003 (ip), vehicle: saline", "value": "101 % of control"},
      {"measurement": "T/C", "setting": "dose: 3.13 mg/kg/injection, schedule: Q01DX009 (ip), vehicle: saline", "value": "100 % of control"},
      {"measurement": "T/C", "setting": "dose: 3.13 mg/kg/injection, schedule: Q04DX003 (ip), vehicle: saline", "value": "104 % of control"},
      {"measurement": "T/C", "setting": "dose: 6.25 mg/kg/injection, schedule: Q01DX009 (ip), vehicle: saline", "value": "101 % of control"},
      {"measurement": "T/C", "setting": "dose: 6.25 mg/kg/injection, schedule: Q04DX003 (ip), vehicle: saline", "value": "97 % of control"}
    ]},
    {"smiles": "COC1=CC2c3ccccc3C1C1C(OC)=CC2c2ccccc21", "values": [
      {"measurement": "T/C", "setting": "dose: 25.0 mg/kg/injection, schedule: Q01DX009 (ip), vehicle: saline with Tween-80", "value": "96 % of control"},
      {"measurement": "T/C", "setting": "dose: 50.0 mg/kg/injection, schedule: Q01DX009 (ip), vehicle: saline with Tween-80", "value": "98 % of control"},
      {"measurement": "T/C", "setting": "dose: 100.0 mg/kg/injection, schedule: Q01DX009 (ip), vehicle: saline with Tween-80", "value": "96 % of control"},
      {"measurement": "T/C", "setting": "[3]", "value": "88 % of control"}
    ]},
    {"smiles": "COc1cc2ccc(C=O)cc2cc1OC", "values": [
      {"measurement": "T/C", "setting": "dose: 12.5 mg/kg/injection, schedule: Q01DX009 (ip), vehicle: Klucel (hydroxypropylcellulose) (HPC)", "value": "97 % of control"},
      {"measurement": "T/C", "setting": "dose: 25.0 mg/kg/injection, schedule: Q01DX009 (ip), vehicle: Klucel (hydroxypropylcellulose) (HPC)", "value": "94 % of control"},
      {"measurement": "T/C", "setting": "[4]", "value": "92 % of control"},
      {"measurement": "T/C", "setting": "[5]", "value": "86 % of control"},
      {"measurement": "T/C", "setting": "[6]", "value": "86 % of control"},
      {"measurement": "T/C", "setting": "dose: 400.0 mg/kg/injection, schedule: Q01DX009 (ip), vehicle: Klucel (hydroxypropylcellulose) (HPC)", "value": "90 % of control"}
    ]},
    {"smiles": "CC1=CCS(=O)(=O)C1", "values": [
      {"measurement": "T/C", "setting": "dose: 50.0 mg/kg/injection, schedule: Q01DX009 (ip), vehicle: saline", "value": "111 % of control"},
      {"measurement": "T/C", "setting": "dose: 100.0 mg/kg/injection, schedule: Q01DX009 (ip), vehicle: saline", "value": "90 % of control"}
    ]},
    {"smiles": "COc1ccc(NC(=O)Nc2cccc(O)c2)c(Cl)c1", "values": [
      {"measurement": "T/C", "setting": "[4]", "value": "95 % of control"},
      {"measurement": "T/C", "setting": "[5]", "value": "98 % of control"},
      {"measurement": "T/C", "setting": "dose: 100.0 mg/kg/injection, schedule: Q04DX003 (ip), vehicle: Klucel (hydroxypropylcellulose) (HPC)", "value": "102 % of control"},
      {"measurement": "T/C", "setting": "[6]", "value": "95 % of control"},
      {"measurement": "T/C", "setting": "dose: 200.0 mg/kg/injection, schedule: Q04DX003 (ip), vehicle: Klucel (hydroxypropylcellulose) (HPC)", "value": "112 % of control"},
      {"measurement": "T/C", "setting": "dose: 400.0 mg/kg/injection, schedule: Q04DX003 (ip), vehicle: Klucel (hydroxypropylcellulose) (HPC)", "value": "104 % of control"}
    ]},
    {"smiles": "Cc1cc(=O)[nH]c(=S)[nH]1", "values": [
      {"measurement": "T/C", "setting": "dose: 100.0 mg/kg/injection, schedule: Q01DX001 (ip), vehicle: saline with Tween-80", "value": "98 % of control"},
      {"measurement": "T/C", "setting": "[7]", "value": "97 % of control"},
      {"measurement": "T/C", "setting": "dose: 200.0 mg/kg/injection, schedule: Q01DX001 (ip), vehicle: saline with Tween-80", "value": "95 % of control"},
      {"measurement": "T/C", "setting": "[8]", "value": "97 % of control"},
      {"measurement": "T/C", "setting": "dose: 400.0 mg/kg/injection, schedule: Q01DX001 (ip), vehicle: saline with Tween-80", "value": "88 % of control"}
    ]},
    {"smiles": "C[CH2][Pb]([CH2]C)([CH2]C)[O]C(=O)c1cc(-c2ccccc2)nc2ccccc12", "values": [
      {"measurement": "T/C", "setting": "dose: 1.56 mg/kg/injection, schedule: Q01DX009 (ip), vehicle: saline with Tween-80", "value": "98 % of control"},
      {"measurement": "T/C", "setting": "dose: 3.13 mg/kg/injection, schedule: Q01DX009 (ip), vehicle: saline with Tween-80", "value": "98 % of control"},
      {"measurement": "T/C", "setting": "dose: 6.25 mg/kg/injection, schedule: Q01DX009 (ip), vehicle: saline with Tween-80", "value": "91 % of control and 104 % of control"}
    ]},
    {"smiles": "O=C(COc1ccc(Cl)cc1)Oc1c(Cl)cc(Cl)cc1Cl", "values": [
      {"measurement": "T/C", "setting": "[7]", "value": "98 % of control"},
      {"measurement": "T/C", "setting": "[8]", "value": "98 % of control"},
      {"measurement": "T/C", "setting": "[9]", "value": "94 % of control"}
    ]},
    {"smiles": "CC(=O)Nc1ccc(N=NN(C)C)cc1", "values": [
      {"measurement": "T/C", "setting": "dose: 4.68 mg/kg/injection, schedule: Q01DX009 (ip), vehicle: Klucel (hydroxypropylcellulose) (HPC)", "value": "106 % of control and 109 % of control"},
      {"measurement": "T/C", "setting": "dose: 9.37 mg/kg/injection, schedule: Q01DX009 (ip), vehicle: Klucel (hydroxypropylcellulose) (HPC)", "value": "114 % of control and 116 % of control"}
    ]},
    {"smiles": "C=C(Cc1ccccc1)C(=O)O", "values": [
      {"measurement": "T/C", "setting": "dose: 25.0 mg/kg/injection, schedule: Q04DX002 (ip), vehicle: saline with Tween-80", "value": "92 % of control"},
      {"measurement": "T/C", "setting": "dose: 50.0 mg/kg/injection, schedule: Q04DX002 (ip), vehicle: saline with Tween-80", "value": "92 % of control"},
      {"measurement": "T/C", "setting": "[7]", "value": "95 % of control"}
    ]},
    {"smiles": "CCCCCn1c(Cl)c(/C=N/NC(N)=S)c2ccccc21", "values": [
      {"measurement": "T/C", "setting": "[1]", "value": "102 % of control"},
      {"measurement": "T/C", "setting": "[2]", "value": "93 % of control"},
      {"measurement": "T/C", "setting": "[3]", "value": "96 % of control"}
    ]},
    {"smiles": "C=CCN(C)N=Nc1ccc(C(N)=O)cc1", "values": [
      {"measurement": "T/C", "setting": "dose: 18.75 mg/kg/injection, schedule: Q01DX009 (ip), vehicle: Klucel (hydroxypropylcellulose) (HPC)", "value": "106 % of control"},
      {"measurement": "T/C", "setting": "dose: 37.5 mg/kg/injection, schedule: Q01DX009 (ip), vehicle: Klucel (hydroxypropylcellulose) (HPC)", "value": "115 % of control"},
      {"measurement": "T/C", "setting": "dose: 150.0 mg/kg/injection, schedule: Q01DX009 (ip), vehicle: Klucel (hydroxypropylcellulose) (HPC)", "value": "156 % of control"},
      {"measurement": "T/C", "setting": "dose: 300.0 mg/kg/injection, schedule: Q01DX009 (ip), vehicle: Klucel (hydroxypropylcellulose) (HPC)", "value": "92 % of control"}
    ]},
    {"smiles": "O=C(Nc1ccccc1)OCCc1c2ccccc2nc2ccccc12", "values": [
      {"measurement": "T/C", "setting": "[7]", "value": "94 % of control"},
      {"measurement": "T/C", "setting": "[8]", "value": "94 % of control"},
      {"measurement": "T/C", "setting": "[9]", "value": "90 % of control and 97 % of control"}
    ]}
  ]
}
